From ChEMBL document CHEMBL3621100, “Discovery of Novel Class I Histone Deacetylase Inhibitors with Promising in Vitro and in Vivo Antitumor Activities” (J Med Chem, 2015)
pIC50: −log10 of the molar value.

Key:
Histone deacetylase 1 = Histone deacetylase 1 (Homo sapiens, UniProt Q13547); experiment: Inhibition of recombinant human HDAC1 after 60 mins by fluorescence assay
Histone deacetylase 2 = Histone deacetylase 2 (Homo sapiens, UniProt Q92769); experiment: Inhibition of recombinant human HDAC2 after 60 mins by fluorescence assay
Histone deacetylase 4 = Histone deacetylase 4 (Homo sapiens, UniProt P56524); experiment: Inhibition of recombinant human HDAC4 after 60 mins by fluorescence assay
Histone deacetylase 5 = Histone deacetylase 5 (Homo sapiens, UniProt Q9UQL6); experiment: Inhibition of recombinant human HDAC5 after 60 mins by fluorescence assay
Histone deacetylase 7 = molecular target: T1, Histone deacetylase 7 (Homo sapiens, UniProt Q8WUI4); experiment: Inhibition of recombinant human HDAC7 after 60 mins by fluorescence assay
T1 sequence (Q8WUI4 whole entry): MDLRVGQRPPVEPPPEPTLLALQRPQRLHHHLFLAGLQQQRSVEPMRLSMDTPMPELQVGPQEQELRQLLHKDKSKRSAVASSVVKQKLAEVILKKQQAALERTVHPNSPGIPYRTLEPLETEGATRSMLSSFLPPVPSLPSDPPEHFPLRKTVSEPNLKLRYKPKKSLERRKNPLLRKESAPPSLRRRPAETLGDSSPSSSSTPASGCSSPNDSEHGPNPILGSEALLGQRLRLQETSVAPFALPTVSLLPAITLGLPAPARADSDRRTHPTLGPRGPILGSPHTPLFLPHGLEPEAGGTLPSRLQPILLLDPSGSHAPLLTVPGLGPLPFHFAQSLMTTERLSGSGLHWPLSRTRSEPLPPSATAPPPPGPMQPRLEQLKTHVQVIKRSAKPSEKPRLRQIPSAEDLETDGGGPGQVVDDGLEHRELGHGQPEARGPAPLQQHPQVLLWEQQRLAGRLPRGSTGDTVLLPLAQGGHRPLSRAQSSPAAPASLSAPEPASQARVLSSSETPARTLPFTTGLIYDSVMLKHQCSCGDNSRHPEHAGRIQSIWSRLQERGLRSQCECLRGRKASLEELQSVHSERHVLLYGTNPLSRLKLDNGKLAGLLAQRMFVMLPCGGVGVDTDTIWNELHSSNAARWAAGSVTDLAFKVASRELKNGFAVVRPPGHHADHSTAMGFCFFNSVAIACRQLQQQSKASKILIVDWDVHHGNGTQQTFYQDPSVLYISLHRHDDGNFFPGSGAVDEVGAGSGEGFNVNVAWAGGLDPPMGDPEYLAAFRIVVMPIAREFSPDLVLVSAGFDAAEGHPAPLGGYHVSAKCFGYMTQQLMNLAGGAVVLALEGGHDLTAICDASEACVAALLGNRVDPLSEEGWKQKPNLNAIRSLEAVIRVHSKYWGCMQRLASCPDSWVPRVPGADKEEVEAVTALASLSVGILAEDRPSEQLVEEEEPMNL

[1] = molecular target: T2, Polyamine deacetylase HDAC10 (Homo sapiens, UniProt Q969S8); experiment: Inhibition of recombinant human HDAC10 after 60 mins by fluorescence assay
T2 sequence (Q969S8 whole entry): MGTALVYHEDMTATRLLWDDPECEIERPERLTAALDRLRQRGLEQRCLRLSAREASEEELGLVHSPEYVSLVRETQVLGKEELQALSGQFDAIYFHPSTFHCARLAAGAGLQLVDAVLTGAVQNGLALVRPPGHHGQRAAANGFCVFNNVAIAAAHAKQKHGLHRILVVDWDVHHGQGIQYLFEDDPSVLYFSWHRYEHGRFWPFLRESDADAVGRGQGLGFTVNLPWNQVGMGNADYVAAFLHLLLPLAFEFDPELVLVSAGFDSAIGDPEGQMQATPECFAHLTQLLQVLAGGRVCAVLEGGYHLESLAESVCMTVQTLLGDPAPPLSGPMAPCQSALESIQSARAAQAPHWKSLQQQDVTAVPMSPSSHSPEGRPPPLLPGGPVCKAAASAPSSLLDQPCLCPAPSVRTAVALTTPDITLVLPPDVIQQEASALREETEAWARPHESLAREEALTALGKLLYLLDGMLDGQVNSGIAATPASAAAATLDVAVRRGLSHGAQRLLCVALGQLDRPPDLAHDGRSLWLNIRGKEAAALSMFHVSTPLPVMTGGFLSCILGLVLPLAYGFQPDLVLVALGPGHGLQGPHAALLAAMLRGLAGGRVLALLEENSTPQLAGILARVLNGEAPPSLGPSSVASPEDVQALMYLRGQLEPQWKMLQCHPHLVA

Histone deacetylase 11 = molecular target: T3, Histone deacetylase 11 (Homo sapiens, UniProt Q96DB2); experiment: Inhibition of recombinant human HDAC11 after 60 mins by fluorescence assay
T3 sequence (Q96DB2 whole entry): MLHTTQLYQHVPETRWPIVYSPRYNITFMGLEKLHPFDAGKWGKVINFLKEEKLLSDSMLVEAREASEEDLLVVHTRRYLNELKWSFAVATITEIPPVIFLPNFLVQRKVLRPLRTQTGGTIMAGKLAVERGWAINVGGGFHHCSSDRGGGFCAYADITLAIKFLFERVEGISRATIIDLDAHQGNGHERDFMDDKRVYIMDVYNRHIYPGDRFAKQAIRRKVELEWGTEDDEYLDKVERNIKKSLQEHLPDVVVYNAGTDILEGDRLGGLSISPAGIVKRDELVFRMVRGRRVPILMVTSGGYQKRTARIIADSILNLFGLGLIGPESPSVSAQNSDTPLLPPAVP

[2] = Antiproliferative activity against human HLF cells after 72 hrs by CCK8 assay; type: cell-based
[3] = Antiproliferative activity against human WI38 cells after 72 hrs by CCK8 assay; type: cell-based, WI-38
in vitro = details: human, DU145 cells and HLF cells
Description: Selectivity ratio of GI50 for human DU145 cells to GI50 for human HLF cells

Chain of Histone deacetylase 2 (Q92769 whole entry): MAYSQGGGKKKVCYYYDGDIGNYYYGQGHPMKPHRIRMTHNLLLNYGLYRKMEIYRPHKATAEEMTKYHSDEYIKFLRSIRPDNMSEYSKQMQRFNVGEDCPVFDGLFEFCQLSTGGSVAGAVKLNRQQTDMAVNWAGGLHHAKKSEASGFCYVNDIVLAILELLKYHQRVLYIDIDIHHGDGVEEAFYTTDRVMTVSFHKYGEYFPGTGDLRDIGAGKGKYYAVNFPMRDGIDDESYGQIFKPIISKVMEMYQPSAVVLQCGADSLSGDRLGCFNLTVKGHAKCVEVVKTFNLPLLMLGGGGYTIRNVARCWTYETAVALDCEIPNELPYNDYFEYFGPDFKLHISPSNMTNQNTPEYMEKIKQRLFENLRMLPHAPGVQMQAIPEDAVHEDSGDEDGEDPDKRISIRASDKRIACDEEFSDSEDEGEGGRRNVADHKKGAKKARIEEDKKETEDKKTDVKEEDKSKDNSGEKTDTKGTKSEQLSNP
Chain of Histone deacetylase 4 (P56524 whole entry): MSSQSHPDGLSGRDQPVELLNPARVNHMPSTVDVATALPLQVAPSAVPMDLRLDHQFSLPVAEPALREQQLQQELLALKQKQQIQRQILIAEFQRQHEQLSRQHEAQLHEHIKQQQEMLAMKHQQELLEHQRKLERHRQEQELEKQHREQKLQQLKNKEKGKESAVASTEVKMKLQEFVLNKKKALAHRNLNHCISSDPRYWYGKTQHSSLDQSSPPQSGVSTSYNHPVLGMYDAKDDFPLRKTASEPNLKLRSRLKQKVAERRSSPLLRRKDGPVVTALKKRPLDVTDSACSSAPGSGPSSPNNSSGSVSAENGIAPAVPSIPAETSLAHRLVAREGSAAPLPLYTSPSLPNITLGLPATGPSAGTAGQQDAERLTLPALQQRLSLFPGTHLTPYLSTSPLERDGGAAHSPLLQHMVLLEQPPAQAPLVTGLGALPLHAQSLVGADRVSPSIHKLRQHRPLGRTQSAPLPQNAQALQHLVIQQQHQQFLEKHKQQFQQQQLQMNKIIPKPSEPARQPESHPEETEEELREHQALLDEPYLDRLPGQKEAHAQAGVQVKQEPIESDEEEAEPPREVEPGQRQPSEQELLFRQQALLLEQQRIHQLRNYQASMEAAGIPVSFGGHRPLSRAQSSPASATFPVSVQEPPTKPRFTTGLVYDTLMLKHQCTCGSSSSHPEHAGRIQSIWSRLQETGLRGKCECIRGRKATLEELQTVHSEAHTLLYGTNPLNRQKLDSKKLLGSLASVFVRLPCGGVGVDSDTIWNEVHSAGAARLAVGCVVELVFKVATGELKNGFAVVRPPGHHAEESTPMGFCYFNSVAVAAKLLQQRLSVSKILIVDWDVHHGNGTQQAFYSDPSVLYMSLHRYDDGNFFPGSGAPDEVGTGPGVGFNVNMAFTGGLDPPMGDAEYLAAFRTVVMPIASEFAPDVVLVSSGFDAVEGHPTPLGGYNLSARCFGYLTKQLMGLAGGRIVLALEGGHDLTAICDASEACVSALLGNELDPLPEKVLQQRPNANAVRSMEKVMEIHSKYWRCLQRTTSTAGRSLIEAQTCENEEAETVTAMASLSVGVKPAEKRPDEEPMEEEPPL
Chain of Histone deacetylase 5 (Q9UQL6 whole entry): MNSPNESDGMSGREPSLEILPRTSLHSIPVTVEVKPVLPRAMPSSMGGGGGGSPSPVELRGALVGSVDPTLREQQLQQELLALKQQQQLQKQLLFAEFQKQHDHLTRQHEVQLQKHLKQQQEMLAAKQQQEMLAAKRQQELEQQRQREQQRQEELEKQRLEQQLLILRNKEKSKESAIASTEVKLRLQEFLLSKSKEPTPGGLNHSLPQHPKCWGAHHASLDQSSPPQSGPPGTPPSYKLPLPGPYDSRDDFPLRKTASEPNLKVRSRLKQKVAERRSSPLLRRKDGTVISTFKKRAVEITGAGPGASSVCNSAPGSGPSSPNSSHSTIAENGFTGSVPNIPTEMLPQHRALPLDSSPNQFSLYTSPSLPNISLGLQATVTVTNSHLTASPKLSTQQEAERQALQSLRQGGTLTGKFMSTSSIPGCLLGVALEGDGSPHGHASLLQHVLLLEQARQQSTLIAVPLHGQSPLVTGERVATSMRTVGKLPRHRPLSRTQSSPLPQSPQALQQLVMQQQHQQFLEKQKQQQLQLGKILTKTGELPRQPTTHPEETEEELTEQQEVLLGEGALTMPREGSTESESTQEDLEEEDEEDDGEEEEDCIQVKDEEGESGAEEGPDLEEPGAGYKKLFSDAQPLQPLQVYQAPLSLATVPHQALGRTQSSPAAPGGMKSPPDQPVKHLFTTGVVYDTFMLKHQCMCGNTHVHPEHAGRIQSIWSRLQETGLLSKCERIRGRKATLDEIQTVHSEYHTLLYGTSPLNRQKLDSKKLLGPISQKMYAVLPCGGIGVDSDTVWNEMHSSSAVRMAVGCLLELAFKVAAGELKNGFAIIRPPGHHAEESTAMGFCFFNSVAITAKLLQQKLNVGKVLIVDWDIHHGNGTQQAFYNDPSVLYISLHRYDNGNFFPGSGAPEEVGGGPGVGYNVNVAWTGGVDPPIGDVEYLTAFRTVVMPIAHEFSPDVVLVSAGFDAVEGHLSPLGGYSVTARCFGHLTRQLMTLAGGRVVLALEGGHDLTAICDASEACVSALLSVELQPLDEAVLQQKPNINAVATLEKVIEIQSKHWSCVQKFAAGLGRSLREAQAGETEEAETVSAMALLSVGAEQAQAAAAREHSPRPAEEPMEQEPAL
Chain of Histone deacetylase 1 (Q13547 whole entry): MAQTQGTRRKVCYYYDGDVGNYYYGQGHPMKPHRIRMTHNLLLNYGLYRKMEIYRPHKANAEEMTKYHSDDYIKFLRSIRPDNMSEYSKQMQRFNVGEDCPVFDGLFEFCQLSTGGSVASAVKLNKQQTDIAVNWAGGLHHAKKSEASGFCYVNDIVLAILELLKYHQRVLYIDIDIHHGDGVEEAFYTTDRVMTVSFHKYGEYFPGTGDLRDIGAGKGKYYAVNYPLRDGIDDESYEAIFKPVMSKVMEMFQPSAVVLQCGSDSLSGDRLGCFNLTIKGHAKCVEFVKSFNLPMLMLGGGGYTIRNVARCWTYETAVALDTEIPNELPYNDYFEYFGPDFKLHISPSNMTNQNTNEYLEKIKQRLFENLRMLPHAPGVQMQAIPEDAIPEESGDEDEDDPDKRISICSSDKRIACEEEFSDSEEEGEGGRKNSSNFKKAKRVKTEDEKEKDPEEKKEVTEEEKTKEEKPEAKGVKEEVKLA

| Compound | pIC50 (Histone deacetylase 1) | pIC50 (Histone deacetylase 2) | pIC50 (Histone deacetylase 4) | pIC50 (Histone deacetylase 5) | pIC50 (Histone deacetylase 7) | pIC50 [1] | pIC50 (Histone deacetylase 11) | GI50 at 72 h [2] | GI50 at 72 h [3] | selectivity ratio (in vitro) |
| --- | --- | --- | --- | --- | --- | --- | --- | --- | --- | --- |
| C/C=C1\NC(=O)c2csc(n2)CNC(=O)C[C@@H](/C=C/CCS)OC(=O)[C@H](C(C)C)NC1=O | 8.56 | 7.35 | < 5.00 | < 5.00 | < 5.00 | 7.43 | < 5.00 | – | – | – |
| C/C=C1\NC(=O)c2csc(n2)CNC(=O)C[C@@H](/C=C/CCSC(C)=O)OC(=O)[C@H](C(C)C)NC1=O | 7.67 | 6.48 | < 5.00 | < 5.00 | < 5.00 | 6.12 | < 5.00 | 321 nM | 258 nM | 0.034 |
| C/C=C1\NC(=O)c2csc(n2)[C@@H](C(C)C)NC(=O)C[C@@H](/C=C/CCSC(=O)CCCCCCC)OC(=O)[C@H](C(C)C)NC1=O | 6.78 | 5.56 | < 5.00 | < 5.00 | < 5.00 | 6.40 | < 5.00 | 710 nM | 561 nM | 0.029 |

More lines, main results first:

| pIC50 (Histone deacetylase 1) | pIC50 (Histone deacetylase 2) | pIC50 (Histone deacetylase 4) | pIC50 (Histone deacetylase 5) | pIC50 (Histone deacetylase 7) | pIC50 [1] | pIC50 (Histone deacetylase 11) | Compound | GI50 at 72 h [2] | GI50 at 72 h [3] | selectivity ratio (in vitro) |
| --- | --- | --- | --- | --- | --- | --- | --- | --- | --- | --- |
| 6.80 | 5.57 | < 5.00 | < 5.00 | < 5.00 | 5.71 | < 5.00 | C/C=C1\NC(=O)c2csc(n2)CNC(=O)C[C@@H](/C=C/CCSC(=O)CCCCCCC)OC(=O)[C@H](C(C)C)NC1=O | 312 nM | 157 nM | 0.022 |
| 8.66 | 7.44 | < 5.00 | < 5.00 | < 5.00 | 6.86 | < 5.00 | C/C=C1\NC(=O)c2csc(n2)[C@@H](C(C)C)NC(=O)C[C@@H](/C=C/CCS)OC(=O)[C@H](C(C)C)NC1=O | – | – | – |
